What was measured:
H2030 = assay: Non Small Cell Lung Cancer Proliferation Assay (Alamar Blue); format: cell-based, human; conditions: Homo sapiens, NCI-H2030, dose response 10 μM to 5 nM
Description: (§1) These cells have a doubling time of 1-2 days. All cell types are adherent and grow in colonies. The cells should be kept at a density between 50,000 cells/mL-500,000 cells/mL to provide for optimum growth and adequate nutrition. The cell line should be maintained at 37° C. in a humidified atmosphere with 5% CO2 in a sterile cell culture incubator.
(§2) To perform the assay, the Non Small Cell Lung Cancer lines are diluted in media and plated into 384 well microplates at a final density of 250 cells in 45 μL.
(§3) High Controls for this assay are made by treating Non Small Cell Lung Cancer cells with 5 ul of 10% DMSO. [Final concentration in this assay is 1% DMSO].
(§4) Important Note: All compounds for testing in this assay should be done at the final concentration of 1% DMSO.
(§5) After addition, the cells are placed in cell culture incubator at 37° C. for 48 hours for complete treatment.
(§6) After drug treatment, cytotoxicity is measured by Alamar Blue reduction.
(§7) The cells are incubated for 48 hours at 37° C. to complete the Alamar Blue reduction.
(§8) The final step in the assay is to measure the amount of Alamar Blue reduction. […] The Alamar Blue fluorescence is measured at an excitation of 530 nm and emission of 590 nm.
(§9) For the NSCLC project, the cell based assay was screened against a small molecule library of approximately 200,000 compounds. The compound library is stored in our automated robotic freezer (Biophile) at −20° C. in 100% DMSO. Compound freeze and thaw cycles are kept to a minimum. […] This assay was performed on a fully automated linear track robotic platform (CRS F3 Robot System, Thermo Electron Corp., Ontario, Canada) utilizing several integrated peripherals for plate handling, liquid dispensing, and readout detection. […] The microplates are then placed at 37° C. for 48 hours to complete treatment of cells with compounds. Next, 5 ul of alamar blue was added using a liquid dispenser (FlexDrop Precision Dispenser, Perkin Elmer, Mass., USA) and incubated for 48 hours at 37° C. The alamar blue prompt fluorescence was measured on Victor V (Victor^3 V, Perkin Elmer, Mass., USA) and output data files were loaded into ORIS (Oncology Research Informatics System, MSKCC, NY, USA), a screening data acquisition and analysis platform.

H3255 = assay: as above; format: cell-based, human; conditions: Homo sapiens, NCI-H3255, dose response 10 μM to 5 nM
Description: as §1, §2, §3, §4, §5, §6, §7, §8, §9

IC50 (H2030): 1.08 µM | IC50 (H3255): 2.95 µM
SMILES: Cc1ccccc1-n1ncc(Cl)c(Cl)c1=O [compound 257017]

Source: patent US20130131062A1, “PYRIDAZINONES AND FURAN-CONTAINING COMPOUNDS” (priority 2006, published 2013)
